# Laboratory results reported in US20160158258A1, “PREVENTION AND TREATMENT OF INFLAMMATORY CONDITIONS” (GLYCOREGIMMUNE, INC., priority 2014, published 2016).
# Legend:
# [1] = system: liver damage caused by alcohol consumption; settings: description, no example; cited from earlier work
# [2] = system: type I NKT cell; settings: description, no example; also in the absence of antigen-presenting cells; cited from earlier work
# [3] = system: conventional MHC-restricted CD4+ T cells; settings: description, no example; cited from earlier work
# [4] = system: chronic and relapsing experimental autoimmune encephalomyelitis (EAE); assay: chronic and relapsing EAE; format: in vivo, SJL mice
# Method: Groups of SJL mice were orally gavaged with miltefosine (1 mg in 200 microliters of 10% DMSO/PBS) or control (DMSO/PBS), twice a week as indicated by arrows. Clinical severity of disease was monitored daily as paralysis in both groups of mice from scale 1 to 5 and shown.
# [5] = system: chronic experimental autoimmune encephalomyelitis (EAE); assay: EAE, oral sulfatide; format: in vivo, B6 mice; settings: oral 200 micrograms for 7 days, starting one day before disease induction
# Excerpt: However as shown in FIG. 6 oral treatment with sulfatide though inhibits disease initially when given orally but not very efficient. Without being limited by any theory, it is contemplated that sulfatide is not very stable in the gut, which is consistent with the observed low efficiency. With reference to FIG. 6, groups of B6 mice were orally treated with sulfatide (200 micrograms in 200 microliters in PBS) for 7 days, starting one day before the disease induction. Clinical paralysis was monitored daily and scored from 1 to 5. […] Without being limited by any theory, the observed similarity of both groups in consistent with instability of sulfatide in the gut.
# [6] = system: ConA-induced hepatitis; settings: description, no example; cited from earlier work
# [7] = system: hepatic ischemia and reperfusion injury; settings: cited from earlier work
# [8] = system: type I NKT cells; sulfatide/CD1d-tetramer+ cells; settings: after administration in vivo; cited from earlier work
# [9] = system: type II NKT cell hybridoma, Hy19.3; assay: plate-bound CD1d assay: IL-2 from type II NKT cell hybridoma; format: cell-based; settings: CD1d coated plates incubated with lipid 6 hr; 50,000 cells/well; IL-2 measured 16 hr later
# Method: (§1) The CD1d protein coated 96-well plates were incubated with the indicated lipids for 6 hr, washed and a type II NKT cell Hy 19.3 was added (50,000 cells/well) and IL-2 measured 16 hr later in the supernatant. LSF, lysosulftatide; LPC, lysophosphatidylcholine.
# [10] = molecular target: T1, CD1d (Mus musculus, UniProt P11609); assay: plate-bound CD1d assay: binding to CD1d; settings: concluded from plate-bound CD1d assay
# T1 sequence (P11609 19-297 limits assumed): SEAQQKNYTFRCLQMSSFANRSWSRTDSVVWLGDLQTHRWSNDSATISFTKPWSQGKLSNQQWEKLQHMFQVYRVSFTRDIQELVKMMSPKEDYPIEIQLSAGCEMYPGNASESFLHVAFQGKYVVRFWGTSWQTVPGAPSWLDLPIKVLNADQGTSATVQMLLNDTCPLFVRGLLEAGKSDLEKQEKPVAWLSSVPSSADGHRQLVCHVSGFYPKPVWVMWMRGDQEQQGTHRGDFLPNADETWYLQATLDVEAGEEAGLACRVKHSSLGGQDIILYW
# T1 sequence (P01887 21-119 partner): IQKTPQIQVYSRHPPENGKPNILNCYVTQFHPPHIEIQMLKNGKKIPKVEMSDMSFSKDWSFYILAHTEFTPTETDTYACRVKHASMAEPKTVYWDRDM
# Method: as §1
# [11] = system: type I NKT cells; assay: alpha-GalCer stimulation of splenocytes from orally treated mice; format: in vivo, B6 mice; settings: 1 mg oral gavage daily for 7 days; splenocytes cultured 90 hrs; 10 ng/ml alpha-GalCer
# Method: Naïve B6 mice were treated every day for 7 days with DMSO (Control) or Miltefosine 1 mg (dissolved in DMSO and diluted into PBS), using oral gavage. Splenocytes were cultured in vitro for 90 hrs in the presence or absence of alpha-GalCer. Stimulation (as stimulation Index) and expansion of type I NKT cells (as FACS staining with alpha-GalCer/CD1d^−tetramer^+ cells) at 10 ng/ml of alpha-GalCer concentration is shown in both FIG. 2A and FIG. 2B.
# [12] = system: ConA-induced hepatitis; assay: ConA-induced hepatitis; format: in vivo, BL/6 mice
# Method: Groups of BL/6 mice were either administered with DMSO/PBS or miltefosine 12 hr before ConA administration and liver injury was determined by H&E staining of liver sections and liver enzymes, such as ALT in serum examined 24 hr later (FIG. 3A and FIG. 3B). Data shown are representative of 2 independent experiments.
# [13] = system: alcoholic liver diseases (ALD); assay: alcoholic liver disease, chronic plus binge EtOh feeding; format: in vivo, C57BL/6 mice
# Excerpt: Groups of C57BL/6 mice were fed liquid alcohol (EtOh) diet or isocaloric control (control) diet for 10 day either containing miltefosine (˜500 micrograms per day) or DMSO/PBS. On day 11, 9 hr after the binge (chronic plus binge feeding), accumulation and activation of type I NKT cells (alpha-GalCer/CD1d^−tetramer^+ cells) or neutrophils (Ly^−6 G^+ CD11b^+) were examined in liver. As shown in FIG. 4A and FIG. 4B, in comparison to the control diet group, type I NKT cells accumulate into liver in mice fed liquid chronic plus binge EtOh diet. Also as shown in FIG. 4C and FIG. 4D, type I NKT cells become activated (as examined by the expression of CD69 cell surface expression in alpha-GalCer/CD1d-tetrame^+ cells) accompanied by accumulation of neutrophils (Ly^−6 G^+ CD11b^+ cells) into liver. Accumulation of activated type I NKT cells and neutrophils leads to inflammatory cascade resulting in heaptocyte injury during ALD.
# [14] = system: liver mononuclear cells; assay: flow cytometry of liver mononuclear cells after oral treatment; format: in vivo, SJL/J mice; settings: 1 mg orally before and during disease; day 59
# Method: Groups of female SJL/J mice were administered orally with 1 mg of miltefosine as shown in the FIG. 2, before and during the course of disease. Mice were sacrificed on day 59.
# [15] = ~500 micrograms per day in EtOh diet 10 day, day 11, 9 hr after binge
compound,measurement,setting,value
"CC1=C(/C=C/C(C)=C/C=C/C(C)=C/C(=O)O)C(C)(C)CCC1 [ATRA, all trans retinoic acid]",liver damage following excess alcohol consumption,[1],significantly inhibits liver damage
same,"type I NKT cell effector function, including cytokine secretion",[2],inhibits type I NKT cell effector function
same,activity of conventional MHC-restricted CD4+ T cells that recognize protein antigens,[3],does not directly inhibit
3′-sulfogalactosyl ceramide [sulfatide],chronic and relapsing EAE,"[4]; SJL/J mice, route not stated",significant inhibition
same,duration of initial protection from clinical paralysis,[5],4 to 5 days
same,"protection against ConA-induced hepatitis (hepatocellular necrosis, serum ALT and AST)",[6],can protect against Concanavalin A (ConA)-induced hepatitis
same,secretion of IFN-gamma by hepatic type I NKT cells,"[7]; early phase of ischemia and reperfusion injury, vs untreated animals",significantly decreased
same,liver injury following ischemia/reperfusion,[7]; mice treated with sulfatide,significantly reduced
same,in vitro proliferation of type I NKT cells in response to alpha-GalCer,[8],suppress in vitro proliferation of type I NKT cells
same,percentage of sulfatide/CD1d-tetramer+ cells with intracytoplasmic IFN-gamma staining,[8],increase the percentage of sulfatide/CD1d-tetramer+ cells with intracytoplasmic IFN-gamma staining
same,liver damage following excess alcohol consumption,[1],almost complete protection from liver damage
CCCCCCCCCCCCCCCCOP(=O)([O-])OCC[N+](C)(C)C [miltefosine],stimulation of type II NKT cell hybridoma Hy19.3 (IL-2 in the supernatant),[9],able to stimulate
same,binding to CD1d molecules,[10],can bind to CD1d molecules
same,type I NKT cells proliferation and expansion in the presence of alpha-GalCer,[11],significant inhibition
same,serum levels of ALT,"[12]; given 12 hours before ConA, 24 hours later",reduced serum levels of ALT
same,liver injury following Con A injection,[12]; given 12 hr before ConA,significant inhibition of liver injury
same,"necrosis, H&E staining of liver sections",[12]; given 12 hr before ConA,decreased necrosis
same,liver injury,[13]; ~500 micrograms per day in EtOh diet,protection from liver injury
same,accumulation of type I NKT cells in liver,[13]; [15],inhibited accumulation of type I NKT cells
same,levels of activated (CD69+) type I NKT cells in liver,[13]; [15],reduced levels of activated (CD69^+) NKT cells
same,levels of neutrophils (Ly-6G+ CD11b+) in liver,[13]; [15],reduced levels of neutrophils
same,"clinical severity of disease (paralysis, scale 1 to 5)",[4]; oral gavage 1 mg twice a week,can be treated with miltefosine
same,"other CD4+ and CD8αβ+ T cells in liver, control vs. treated",[14],not different
same,regulatory CD8αα+ T cells in liver,[14],significantly increased
